Data taken from ChEMBL document CHEMBL1201862, “PubChem BioAssay data set” (2004).
Active and inactive are the calls of the source.

Assays:
[1] = target: T1, Sentrin-specific protease 7 (Homo sapiens, UniProt Q9BQF6); format: functional;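 further: Luminescence-based dose-response confirmation of ultra-high-throughput screening hits, measuring inhibition of SENP7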
T1 sequence (Q9BQF6 whole entry): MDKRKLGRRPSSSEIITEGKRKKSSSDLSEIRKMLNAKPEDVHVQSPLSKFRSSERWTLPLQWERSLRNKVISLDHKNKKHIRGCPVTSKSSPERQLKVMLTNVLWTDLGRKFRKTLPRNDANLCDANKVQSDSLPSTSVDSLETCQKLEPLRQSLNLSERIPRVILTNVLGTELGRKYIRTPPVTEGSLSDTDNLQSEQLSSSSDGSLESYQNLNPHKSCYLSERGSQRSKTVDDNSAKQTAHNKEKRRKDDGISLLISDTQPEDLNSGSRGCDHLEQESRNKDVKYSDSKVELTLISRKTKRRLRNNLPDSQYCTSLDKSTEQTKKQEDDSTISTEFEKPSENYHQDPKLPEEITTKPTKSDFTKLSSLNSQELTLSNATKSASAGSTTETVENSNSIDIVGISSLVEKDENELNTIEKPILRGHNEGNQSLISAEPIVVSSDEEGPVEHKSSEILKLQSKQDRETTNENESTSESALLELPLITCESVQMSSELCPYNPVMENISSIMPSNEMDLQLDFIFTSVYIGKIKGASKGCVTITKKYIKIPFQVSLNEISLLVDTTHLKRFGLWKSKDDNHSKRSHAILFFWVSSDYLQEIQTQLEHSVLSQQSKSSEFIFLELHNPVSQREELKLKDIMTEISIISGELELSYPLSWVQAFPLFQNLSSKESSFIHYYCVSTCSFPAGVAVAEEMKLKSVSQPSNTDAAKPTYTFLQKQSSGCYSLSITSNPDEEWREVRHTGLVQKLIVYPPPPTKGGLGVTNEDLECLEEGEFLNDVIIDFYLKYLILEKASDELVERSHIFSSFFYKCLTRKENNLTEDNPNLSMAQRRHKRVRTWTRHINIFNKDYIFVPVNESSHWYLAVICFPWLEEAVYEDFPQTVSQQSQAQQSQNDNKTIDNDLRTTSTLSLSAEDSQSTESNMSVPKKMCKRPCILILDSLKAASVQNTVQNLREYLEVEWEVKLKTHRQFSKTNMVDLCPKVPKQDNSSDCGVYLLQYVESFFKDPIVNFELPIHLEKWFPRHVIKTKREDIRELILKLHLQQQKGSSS

[2] = target: T2, Sentrin-specific protease 6 (Homo sapiens, UniProt Q9GZR1); format: functional;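 further: Luminescence-based dose-response confirmatory assay of SENP6 inhibition, following up an ultra-high-throughput screen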
T2 sequence (Q9GZR1 whole entry): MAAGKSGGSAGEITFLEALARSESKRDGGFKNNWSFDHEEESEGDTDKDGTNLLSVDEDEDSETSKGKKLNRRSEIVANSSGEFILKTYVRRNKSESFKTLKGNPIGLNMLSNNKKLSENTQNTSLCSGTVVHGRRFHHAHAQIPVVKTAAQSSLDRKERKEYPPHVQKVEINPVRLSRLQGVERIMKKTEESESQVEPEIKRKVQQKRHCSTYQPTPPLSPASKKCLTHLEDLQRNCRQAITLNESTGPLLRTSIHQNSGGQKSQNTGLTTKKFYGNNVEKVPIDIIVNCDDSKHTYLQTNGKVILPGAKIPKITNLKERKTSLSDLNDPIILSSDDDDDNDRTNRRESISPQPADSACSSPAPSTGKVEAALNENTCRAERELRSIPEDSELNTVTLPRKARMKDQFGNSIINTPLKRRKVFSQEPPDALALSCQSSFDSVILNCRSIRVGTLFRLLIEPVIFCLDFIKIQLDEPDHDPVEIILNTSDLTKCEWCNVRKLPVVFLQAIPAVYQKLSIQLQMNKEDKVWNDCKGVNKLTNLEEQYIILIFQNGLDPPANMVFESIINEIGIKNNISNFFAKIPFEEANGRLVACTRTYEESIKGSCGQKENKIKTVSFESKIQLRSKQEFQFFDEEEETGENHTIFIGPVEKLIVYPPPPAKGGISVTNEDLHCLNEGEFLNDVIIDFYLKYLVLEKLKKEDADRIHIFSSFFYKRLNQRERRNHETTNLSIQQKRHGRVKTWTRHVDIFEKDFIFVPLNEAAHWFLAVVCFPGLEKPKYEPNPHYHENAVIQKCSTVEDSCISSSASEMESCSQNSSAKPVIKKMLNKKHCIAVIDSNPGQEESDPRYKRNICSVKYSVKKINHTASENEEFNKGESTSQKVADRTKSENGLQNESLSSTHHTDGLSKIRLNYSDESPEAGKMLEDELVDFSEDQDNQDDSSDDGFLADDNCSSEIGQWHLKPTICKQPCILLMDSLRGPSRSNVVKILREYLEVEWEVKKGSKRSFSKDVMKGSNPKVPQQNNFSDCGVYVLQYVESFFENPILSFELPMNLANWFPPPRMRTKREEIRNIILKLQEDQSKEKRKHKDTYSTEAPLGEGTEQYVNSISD

[3] = target: T3, Sentrin-specific protease 8 (Homo sapiens, UniProt Q96LD8); format: functional;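 further: luminescence read-out of SENP8 inhibition, dose-response confirmation following an ultra-high-throughput screen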
T3 sequence (Q96LD8 whole entry): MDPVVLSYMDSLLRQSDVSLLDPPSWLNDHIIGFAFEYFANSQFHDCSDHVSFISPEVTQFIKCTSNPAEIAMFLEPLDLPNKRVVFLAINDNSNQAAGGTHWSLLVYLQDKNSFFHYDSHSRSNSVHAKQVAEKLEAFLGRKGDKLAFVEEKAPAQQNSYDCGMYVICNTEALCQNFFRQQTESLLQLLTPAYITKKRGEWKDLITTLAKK

[4] = target: Ras and Rab interactor 1/Tyrosine-protein kinase ABL1 (Homo sapiens, UniProt P00519+Q13671); format: functional;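 further: biochemical TR-FRET dose-response test measuring inhibition of binding between Rin1 and Abl proteins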
Sequence of Ras and Rab interactor 1/Tyrosine-protein kinase ABL1 (P00519 whole entry): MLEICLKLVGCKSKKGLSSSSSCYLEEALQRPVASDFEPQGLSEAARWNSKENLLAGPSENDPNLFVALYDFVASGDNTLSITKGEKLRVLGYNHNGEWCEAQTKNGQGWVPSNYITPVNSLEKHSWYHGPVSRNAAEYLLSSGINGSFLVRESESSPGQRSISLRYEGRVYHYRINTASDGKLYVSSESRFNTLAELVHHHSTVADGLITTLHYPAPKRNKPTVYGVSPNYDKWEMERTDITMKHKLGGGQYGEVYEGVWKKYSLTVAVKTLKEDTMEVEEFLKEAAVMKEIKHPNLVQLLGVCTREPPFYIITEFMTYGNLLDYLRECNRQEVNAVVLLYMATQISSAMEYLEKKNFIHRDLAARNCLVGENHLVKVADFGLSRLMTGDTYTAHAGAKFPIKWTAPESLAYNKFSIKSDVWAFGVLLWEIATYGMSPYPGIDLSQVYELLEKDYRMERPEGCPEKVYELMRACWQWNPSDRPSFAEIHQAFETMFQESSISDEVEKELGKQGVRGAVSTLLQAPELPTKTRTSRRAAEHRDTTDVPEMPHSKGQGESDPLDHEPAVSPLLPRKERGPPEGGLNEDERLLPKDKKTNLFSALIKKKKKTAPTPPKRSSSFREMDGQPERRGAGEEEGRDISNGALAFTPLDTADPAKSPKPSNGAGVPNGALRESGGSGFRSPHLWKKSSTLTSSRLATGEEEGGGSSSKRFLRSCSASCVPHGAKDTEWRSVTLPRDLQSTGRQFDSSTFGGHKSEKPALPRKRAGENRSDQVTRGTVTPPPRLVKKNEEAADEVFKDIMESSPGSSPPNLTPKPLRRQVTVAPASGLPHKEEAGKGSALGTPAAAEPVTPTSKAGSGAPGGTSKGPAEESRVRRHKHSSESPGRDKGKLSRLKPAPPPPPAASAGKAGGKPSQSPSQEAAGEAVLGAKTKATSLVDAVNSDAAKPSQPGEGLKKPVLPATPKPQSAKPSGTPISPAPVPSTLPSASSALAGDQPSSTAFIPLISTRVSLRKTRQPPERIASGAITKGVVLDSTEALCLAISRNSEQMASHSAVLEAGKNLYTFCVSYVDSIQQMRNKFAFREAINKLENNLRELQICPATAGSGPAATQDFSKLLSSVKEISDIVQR
Sequence of Ras and Rab interactor 1/Tyrosine-protein kinase ABL1 (Q13671 whole entry): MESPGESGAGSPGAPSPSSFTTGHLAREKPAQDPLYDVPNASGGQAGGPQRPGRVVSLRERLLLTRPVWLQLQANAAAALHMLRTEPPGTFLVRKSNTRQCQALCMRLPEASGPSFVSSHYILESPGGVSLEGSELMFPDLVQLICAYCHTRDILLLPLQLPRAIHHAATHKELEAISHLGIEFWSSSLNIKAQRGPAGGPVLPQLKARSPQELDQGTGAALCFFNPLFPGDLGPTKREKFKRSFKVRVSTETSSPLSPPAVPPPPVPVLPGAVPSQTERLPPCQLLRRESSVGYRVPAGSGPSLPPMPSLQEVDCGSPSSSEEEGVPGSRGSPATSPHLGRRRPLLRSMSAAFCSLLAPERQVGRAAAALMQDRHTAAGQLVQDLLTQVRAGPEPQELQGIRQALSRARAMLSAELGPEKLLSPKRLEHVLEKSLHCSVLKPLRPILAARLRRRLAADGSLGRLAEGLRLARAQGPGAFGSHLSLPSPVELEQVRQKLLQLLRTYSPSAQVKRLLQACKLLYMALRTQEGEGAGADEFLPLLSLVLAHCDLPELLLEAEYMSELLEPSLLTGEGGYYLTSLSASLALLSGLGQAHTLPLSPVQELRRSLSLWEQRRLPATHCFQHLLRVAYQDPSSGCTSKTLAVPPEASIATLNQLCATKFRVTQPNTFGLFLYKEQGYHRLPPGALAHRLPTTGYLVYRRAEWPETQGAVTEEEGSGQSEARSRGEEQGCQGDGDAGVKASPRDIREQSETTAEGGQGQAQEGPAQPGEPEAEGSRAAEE

[5] = target: T4, Apoptotic protease-activating factor 1 (Homo sapiens, UniProt O14727); format: functional
T4 sequence (O14727 whole entry): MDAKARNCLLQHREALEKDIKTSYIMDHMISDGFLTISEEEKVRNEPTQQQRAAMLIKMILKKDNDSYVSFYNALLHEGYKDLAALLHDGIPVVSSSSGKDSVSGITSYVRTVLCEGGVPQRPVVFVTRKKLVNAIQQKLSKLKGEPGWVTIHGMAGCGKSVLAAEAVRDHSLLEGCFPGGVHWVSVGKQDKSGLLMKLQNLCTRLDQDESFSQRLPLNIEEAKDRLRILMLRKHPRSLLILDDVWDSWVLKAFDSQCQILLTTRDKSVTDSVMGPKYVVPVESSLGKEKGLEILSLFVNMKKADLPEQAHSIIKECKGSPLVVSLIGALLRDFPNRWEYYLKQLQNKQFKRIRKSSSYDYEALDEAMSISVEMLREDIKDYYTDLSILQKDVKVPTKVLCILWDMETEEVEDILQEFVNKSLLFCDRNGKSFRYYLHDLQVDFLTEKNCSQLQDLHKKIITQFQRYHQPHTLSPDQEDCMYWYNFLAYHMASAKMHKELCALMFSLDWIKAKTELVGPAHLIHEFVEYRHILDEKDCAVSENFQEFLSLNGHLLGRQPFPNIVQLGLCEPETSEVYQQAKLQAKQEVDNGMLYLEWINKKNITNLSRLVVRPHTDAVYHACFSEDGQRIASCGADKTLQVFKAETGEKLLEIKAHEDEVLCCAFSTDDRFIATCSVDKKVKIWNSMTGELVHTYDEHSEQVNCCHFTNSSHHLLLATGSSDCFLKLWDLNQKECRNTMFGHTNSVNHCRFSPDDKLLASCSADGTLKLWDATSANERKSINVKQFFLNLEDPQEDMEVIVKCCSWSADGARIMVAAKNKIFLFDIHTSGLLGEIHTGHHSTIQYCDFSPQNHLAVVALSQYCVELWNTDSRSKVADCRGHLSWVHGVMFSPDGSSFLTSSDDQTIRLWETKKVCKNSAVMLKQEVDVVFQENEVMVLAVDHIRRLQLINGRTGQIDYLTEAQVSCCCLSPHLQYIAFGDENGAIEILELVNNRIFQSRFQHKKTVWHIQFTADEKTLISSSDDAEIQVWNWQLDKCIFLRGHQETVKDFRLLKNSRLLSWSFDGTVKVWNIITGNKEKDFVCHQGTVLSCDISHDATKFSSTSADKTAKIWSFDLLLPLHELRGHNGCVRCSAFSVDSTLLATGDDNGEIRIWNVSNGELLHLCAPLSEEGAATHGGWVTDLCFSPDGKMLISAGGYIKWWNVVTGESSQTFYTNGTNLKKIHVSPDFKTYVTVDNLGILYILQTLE

[6] = target: T5, Short transient receptor potential channel 4 (Mus musculus, UniProt Q9QUQ5); assay: calcium entry via TRPC4 opening agents – cell-based, HEK293 TRPC4/mu-opioid, Fluo-4 calcium, dose response (AID 434937); format: functional
T5 sequence (Q9QUQ5 whole entry): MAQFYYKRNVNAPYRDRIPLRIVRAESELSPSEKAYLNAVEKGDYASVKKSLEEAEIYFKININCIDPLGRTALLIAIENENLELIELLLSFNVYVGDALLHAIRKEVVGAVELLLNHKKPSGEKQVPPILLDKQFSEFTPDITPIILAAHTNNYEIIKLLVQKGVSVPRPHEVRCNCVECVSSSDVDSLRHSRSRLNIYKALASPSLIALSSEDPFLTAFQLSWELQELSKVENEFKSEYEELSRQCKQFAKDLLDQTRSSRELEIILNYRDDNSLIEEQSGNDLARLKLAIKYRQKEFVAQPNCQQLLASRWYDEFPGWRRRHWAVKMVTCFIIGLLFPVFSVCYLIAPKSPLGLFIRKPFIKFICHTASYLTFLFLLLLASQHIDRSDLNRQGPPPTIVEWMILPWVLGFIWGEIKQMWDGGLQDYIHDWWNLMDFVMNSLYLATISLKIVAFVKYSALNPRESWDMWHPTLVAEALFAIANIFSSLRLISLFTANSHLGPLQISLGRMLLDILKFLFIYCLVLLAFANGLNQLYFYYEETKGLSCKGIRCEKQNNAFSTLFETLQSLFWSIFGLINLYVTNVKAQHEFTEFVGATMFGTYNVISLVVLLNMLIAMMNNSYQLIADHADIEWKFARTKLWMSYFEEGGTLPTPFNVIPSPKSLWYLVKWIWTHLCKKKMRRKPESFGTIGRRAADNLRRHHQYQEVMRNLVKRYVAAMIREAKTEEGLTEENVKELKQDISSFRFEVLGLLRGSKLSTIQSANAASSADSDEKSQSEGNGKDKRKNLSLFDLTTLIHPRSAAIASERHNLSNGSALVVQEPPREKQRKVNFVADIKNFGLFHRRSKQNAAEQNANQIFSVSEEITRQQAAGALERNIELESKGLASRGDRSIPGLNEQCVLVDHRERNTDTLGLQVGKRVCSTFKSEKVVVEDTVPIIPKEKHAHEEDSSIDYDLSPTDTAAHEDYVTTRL

[7] = target: T6, Long-chain-fatty-acid--AMP ligase FadD28 (Mycobacterium tuberculosis, UniProt P9WQ59); assay: Fluorescence polarization aasay to screen for inhibitors that compete for the binding of FadD28 to a bisubstrate Measured in Biochemical System Using Plate Reader - 2147-01_Inhibitor_Dose_CherryPick_Activity.; format: functional, Mycobacterium tuberculosis H37Rv
T6 sequence (P9WQ59 whole entry): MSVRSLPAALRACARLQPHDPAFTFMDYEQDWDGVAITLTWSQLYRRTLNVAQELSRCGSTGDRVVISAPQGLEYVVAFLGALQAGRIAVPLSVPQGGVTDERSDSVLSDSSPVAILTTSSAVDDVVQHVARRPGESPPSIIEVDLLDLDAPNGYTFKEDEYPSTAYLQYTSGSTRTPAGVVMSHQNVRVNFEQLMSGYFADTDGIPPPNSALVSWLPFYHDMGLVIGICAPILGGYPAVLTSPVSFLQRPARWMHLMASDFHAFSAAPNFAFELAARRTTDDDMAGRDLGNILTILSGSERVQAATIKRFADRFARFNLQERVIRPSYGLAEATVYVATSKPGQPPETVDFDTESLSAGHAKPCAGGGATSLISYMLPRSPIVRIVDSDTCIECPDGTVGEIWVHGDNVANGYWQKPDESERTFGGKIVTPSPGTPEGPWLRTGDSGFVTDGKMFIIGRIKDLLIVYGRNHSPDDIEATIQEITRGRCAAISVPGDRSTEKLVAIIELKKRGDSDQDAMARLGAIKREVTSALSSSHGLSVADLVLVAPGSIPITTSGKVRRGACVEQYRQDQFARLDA

[8] = Luminescence Cell-Based Dose Retest to Confirm Inhibitors of Cancer Stem Cells. [Related pubchem assays (depositor defined):AID2717, AID2721]; format: functional; settings: Homo sapiens

## COc1cccc(NC(=O)Nc2ccc3c(c2)CCC3)c1
[1]
  IC50: 4.28 µM (active)
[2]
  IC50: > 100 µM (inactive)
[3]
  IC50: > 100 µM (inactive)

## Cc1nc(N/N=C/c2ccc(O)cc2O)cc(N2CCOCC2)n1
[4]
  IC50: > 2.72 µM (active)

## CC(C)(C)C(=O)[C@@H]1[C@@H]2C(=O)N(C3CCCCC3)C(=O)[C@@H]2[C@H]2c3ccccc3C=CN12
[5]
  IC50: 10.5 µM (active)

## CC1CCN(CCCNS(=O)(=O)c2cc(Br)cc3c2N(C(=O)C2CC2)CC3)CC1
[6]
  EC50: 0.299 µM (active)

## CCCN(CC(=O)Nc1ccccc1C)C(=O)c1sc2ccccc2c1Cl
[5]
  IC50: > 100 µM (inactive)

## CN(C(=O)c1ccc(NC(=O)Cc2cccc(NC(=O)C3CCN(C(=O)C4CCCC4)CC3)c2)cc1)C1CC1
[4]
  IC50: 21.2 µM (inactive)

## Nc1nc(O)cc(NC2CCCC2)n1
[4]
  IC50: 12.4 µM (inactive)

## C/C(=N\Nc1ccc(Cl)c(C(=O)O)c1)c1ccc(Br)s1
[7]
  AC50: > 100 µM (inactive)

## CN(C)C(CNC(=O)Cc1cccc(C(F)(F)F)c1)c1ccco1 (centres undefined)
[6]
  EC50: 0.335 µM (active)

## O=C(CC(=O)Nc1ccccc1[N+](=O)[O-])Nc1ccccc1[N+](=O)[O-]
[7]
  AC50: 32 µM (inactive)

## CCOC(=O)C1(CCc2ccccc2)CCN(Cc2ccc(OC)cc2)CC1
[6]
  EC50: 0.267 µM (active)

## COc1ccc(CCC(=O)Nc2c(-c3ccc(N(C)C)cc3)n[nH]c2O)cc1
[4]
  IC50: > 73.5 µM (inactive)

## O=C(CCn1c2c(c3ccccc31)CCCC2)NNC(=O)c1ccc([N+](=O)[O-])cc1
[5]
  IC50: 1.8 µM (active)

## COc1cc2ccccc2cc1C(=O)Nc1ccccc1Cl
[8]
  AC50: 4.58 µM (active)
[1]
  IC50: 8.41 µM (active)
[2]
  IC50: 10.2 µM (active)
[3]
  IC50: 17.2 µM (active)
